Data as given in PubChem BioAssay AID1259408 (Genetic Toxicology Data Bank (GENE-TOX), 2018).
The source made the active and inactive calls. No rule for the calls is given here.

Test system: GENE-TOX genotoxicity assays, various organisms and cells
Assay: GENE-TOX mutagenicity studies
Details: for call: Assay Type: In vivo carcinogenicity studies
[1] = Species/Cell Type: Drosophila melanogaster, Assay Type: Sex-linked recessive lethal gene mutation, Assay Code: SRL+, Evaluation Type: Evaluation A (Pre-1980)
[2] = Species/Cell Type: Nonhuman, Assay Code: CCG+, Evaluation Type: Evaluation A (Pre-1980)
[3] = Species/Cell Type: Salmonella typhimurium (one or more of the five standard strains: TA98, TA100, TA1535, TA1537, and TA1538), Assay Type: Histidine reverse gene mutation, Ames assay, Assay Code: SAL+, Evaluation Type: Evaluation A (Pre-1980)
[4] = Species/Cell Type: Chinese hamster lung (V79) cells, Assay Type: Forward gene mutation at the HPRT or ouabain locus, Assay Code: V79-, Evaluation Type: Evaluation A (Pre-1980)
[5] = Species/Cell Type: Syrian hamster embryo (SHE) cells, Assay Type: Cell transformation, clonal assay, Assay Code: CTC+, Evaluation Type: Evaluation A (Pre-1980)
[6] = Species/Cell Type: Salmonella typhimurium (one or more of the five standard strains: TA98, TA100, TA1535, TA1537, and TA1538), Assay Type: Histidine reverse gene mutation, Ames assay, Assay Code: SALT, Evaluation Type: Evaluation A (Pre-1980)
[7] = Species/Cell Type: Drosophila melanogaster, Assay Type: Sex-linked recessive lethal gene mutation, Assay Code: SRLT, Evaluation Type: Evaluation A (Pre-1980)
[8] = Species/Cell Type: Neurospora crassa, Assay Type: Reverse gene mutation, Assay Code: NER+, Evaluation Type: Evaluation A (Pre-1980)
[9] = Species/Cell Type: Nonhuman, Assay Type: Sister-chromatid exchange (SCE) in vitro, Assay Code: SC2+D, Dose Response: With dose response, Evaluation Type: Evaluation B (Post-1980)
[10] = Species/Cell Type: Syrian hamster embryo (SHE) cells, Assay Type: Cell transformation, clonal assay, Assay Code: CTC-, Evaluation Type: Evaluation A (Pre-1980)
[11] = Species/Cell Type: Human lymphocytes, Assay Type: Sister-chromatid exchange (SCE) in vitro, Assay Code: SCLT, Evaluation Type: Evaluation B (Post-1980)
[12] = Species/Cell Type: Human, Assay Type: Sister-chromatid exchange (SCE) in vitro, Assay Code: SC1T, Evaluation Type: Evaluation B (Post-1980)
[13] = Species/Cell Type: Mammalian polychromatic erythrocytes, Assay Type: Micronucleus test, chromosome aberrations, Assay Code: MNTT, Evaluation Type: Evaluation A (Pre-1980)
[14] = Species/Cell Type: Nonhuman, Assay Code: CCG+L, Evaluation Type: Evaluation A (Pre-1980)

O=C(O)c1ccc([N+](=O)[O-])cc1
mutagenic call (Species/Cell Type: Salmonella typhimurium, Assay Type: Forward and reverse gene mutation, host-mediated assay, Assay Code: HMA-, Evaluation Type: Evaluation A (Pre-1980)): inactive; negative

O=NN(CCCl)C(=O)NCCCCCNC(=O)N(CCCl)N=O
mutagenic call [1]: active; positive
mutagenic call (Species/Cell Type: Saccharomyces cerevisiae, Assay Type: Mitotic recombination or gene conversion, Assay Code: YEC+, Evaluation Type: Evaluation A (Pre-1980)): active; positive

CCOc1ccc(NC(C)=O)cc1
mutagenic call (Species/Cell Type: Mammalian polychromatic erythrocytes, Assay Type: Micronucleus test, chromosome aberrations, Assay Code: MNT+, Evaluation Type: Evaluation B (Post-1980)): active; positive
call [2]: active; positive
mutagenic call (Species/Cell Type: Nonhuman, Assay Type: Sister-chromatid exchange (SCE) in vivo, Assay Code: SC3+, Evaluation Type: Evaluation B (Post-1980)): active; positive

CC(Cl)CCl (centres undefined)
mutagenic call [3]: active; positive

CCCCCCCCCCCCCCCCCC(=O)O
mutagenic call (Species/Cell Type: Escherichia coli polA (W3119 vs P3478), Assay Type: Rec-assay, DNA effects (bacterial DNA repair), Assay Code: RE1-, Evaluation Type: Evaluation A (Pre-1980)): inactive; negative

Oc1cc2c3ccccc3cc3ccc4cccc1c4c32
mutagenic call [4]: inactive; negative
call (Species/Cell Type: Nonhuman, Assay Code: CCGT, Evaluation Type: Evaluation A (Pre-1980)): no conclusion
mutagenic call [3]: active; positive

O[C@@H]1c2ccccc2-c2cc3ccc4ccccc4c3cc2[C@@H]1O
mutagenic call [4]: inactive; negative
mutagenic call (Species/Cell Type: Mouse prostate cells, Assay Type: Cell transformation, Assay Code: CTM-, Evaluation Type: Evaluation A (Pre-1980)): inactive; negative
mutagenic call [5]: active; positive

CN(C)c1ccc(N=Nc2ccccc2C(=O)O)cc1
mutagenic call (Species/Cell Type: Bacillus subtilis (H17 vs M45), Assay Type: Rec-assay, spot test, DNA effects (bacterial DNA repair), Assay Code: REW+, Evaluation Type: Evaluation A (Pre-1980)): active; positive
mutagenic call [6]: no conclusion

Nc1ccc2nc[nH]c2c1
mutagenic call (Species/Cell Type: Aspergillus nidulans, Assay Type: Aneuploidy, chromosome aberrations, Assay Code: ASN-, Evaluation Type: Evaluation A (Pre-1980)): inactive; negative

CON
mutagenic call [7]: no conclusion
mutagenic call (Species/Cell Type: Drosophila melanogaster, Sex: Male, Assay Type: Heritable translocation test, chromosome aberrations, Assay Code: DHTT, Evaluation Type: Evaluation A (Pre-1980)): no conclusion
mutagenic call [8]: active; positive
mutagenic call (Species/Cell Type: Saccharomyces cerevisiae, Assay Type: Mitotic recombination or gene conversion, Assay Code: YEH+, Evaluation Type: Evaluation A (Pre-1980)): active; positive

Cl/C=C(\Cl)C(Cl)Cl
mutagenic call [9]: active; positive

ClC1=C(Cl)[C@]2(Cl)[C@@H]3[C@@H](Cl)[C@H]4O[C@H]4[C@@H]3[C@@]1(Cl)C2(Cl)Cl
mutagenic call [7]: no conclusion
mutagenic call (Species/Cell Type: Rodents, Sex: Male, Assay Type: Dominant lethal test, Assay Code: DLT-, Evaluation Type: Evaluation A (Pre-1980)): inactive; negative
mutagenic call [6]: no conclusion

CC(O)CO (centres undefined)
mutagenic call (Species/Cell Type: Human, Assay Type: Sister-chromatid exchange (SCE) in vitro, Assay Code: SC1-, Evaluation Type: Evaluation B (Post-1980)): inactive; negative
mutagenic call [10]: inactive; negative

CC(C)NCC(O)COc1ccc(CC(N)=O)cc1 (centres undefined)
mutagenic call (Species/Cell Type: Mammalian polychromatic erythrocytes, Assay Type: Micronucleus test, chromosome aberrations, Assay Code: MNTT, Evaluation Type: Evaluation B (Post-1980)): no conclusion

O=C1O[C@H]([C@@H](O)CO)C(O)=C1O
mutagenic call (Species/Cell Type: Human lymphocytes, Assay Type: Sister-chromatid exchange (SCE) in vitro, Assay Code: SCL+, Evaluation Type: Evaluation A (Pre-1980)): active; positive
mutagenic call [11]: no conclusion
mutagenic call (Species/Cell Type: Human, Assay Type: Sister-chromatid exchange (SCE) in vitro, Assay Code: SC1+, Evaluation Type: Evaluation A (Pre-1980)): active; positive
mutagenic call [12]: no conclusion
mutagenic call [13]: no conclusion
mutagenic call (Species/Cell Type: Mouse, Sex: Male, Assay Type: Sperm morphology, Assay Code: SPI-, Evaluation Type: Evaluation A (Pre-1980)): inactive; negative
mutagenic call (Species/Cell Type: Nonhuman, Assay Type: Sister-chromatid exchange (SCE) in vitro, Assay Code: SC2+, Evaluation Type: Evaluation A (Pre-1980)): active; positive
mutagenic call [9]: active; positive
mutagenic call (Species/Cell Type: Nonhuman, Assay Type: Sister-chromatid exchange (SCE) in vivo, Assay Code: SC3T, Evaluation Type: Evaluation B (Post-1980)): no conclusion
mutagenic call [6]: no conclusion

C=[N+]=[N-]
mutagenic call [8]: active; positive
call [14]: active; positive
mutagenic call (Species/Cell Type: Saccharomyces cerevisiae, Assay Type: Reverse gene mutation, Assay Code: YER+, Evaluation Type: Evaluation A (Pre-1980)): active; positive

C[C@@H]1[C@H](O)[C@@H](C)/C=C/C=C/C=C/C=C/C=C/C=C/C=C/[C@H](O[C@@H]2O[C@H](C)[C@@H](O)[C@H](N)[C@@H]2O)C[C@@H]2O[C@](O)(C[C@@H](O)C[C@@H](O)[C@H](O)CC[C@@H](O)C[C@@H](O)CC(=O)O[C@H]1C)C[C@H](O)[C@H]2C(=O)O
mutagenic call (Species/Cell Type: Aspergillus nidulans, Assay Type: Aneuploidy, chromosome aberrations, Assay Code: ASN+, Evaluation Type: Evaluation A (Pre-1980)): active; positive

Cc1ccc(N)cc1O
mutagenic call [13]: no conclusion

CN(C)P(=O)(N(C)C)N(C)C
mutagenic call [1]: active; positive
mutagenic call (Species/Cell Type: Drosophila melanogaster, Sex: Male, Assay Type: Heritable translocation test, chromosome aberrations, Assay Code: DHT+, Evaluation Type: Evaluation A (Pre-1980)): active; positive
mutagenic call (Species/Cell Type: Mammalian polychromatic erythrocytes, Assay Type: Micronucleus test, chromosome aberrations, Assay Code: MNT+, Evaluation Type: Evaluation A (Pre-1980)): active; positive
mutagenic call (Species/Cell Type: Mouse, Sex: Male, Assay Type: Sperm morphology, Assay Code: SPI+, Evaluation Type: Evaluation A (Pre-1980)): active; positive
call [2]: active; positive
mutagenic call (Species/Cell Type: Nonhuman, Assay Type: Sister-chromatid exchange (SCE) in vitro, Assay Code: SC2+D*, Activation: With metabolic activation, Dose Response: With dose response, Evaluation Type: Evaluation B (Post-1980)): active; positive
mutagenic call (Species/Cell Type: Rabbit, Sex: Male, Assay Type: Sperm morphology, Assay Code: SPR+, Evaluation Type: Evaluation A (Pre-1980)): active; positive
mutagenic call (Species/Cell Type: Rodents, Sex: Male, Assay Type: Dominant lethal test, Assay Code: DLT+, Evaluation Type: Evaluation A (Pre-1980)): active; positive
mutagenic call (Species/Cell Type: Tradescantia species, Assay Type: Gene mutation, Assay Code: TRM+D, Dose Response: With dose response, Evaluation Type: Evaluation A (Pre-1980)): active; positive

Cc1cc(O)c(C(C)C)cc1O
mutagenic call (Species/Cell Type: Allium cepa, Assay Type: Chromosome aberrations, Assay Code: ALC-, Evaluation Type: Evaluation A (Pre-1980)): inactive; negative

CCCN(CCC)S(=O)(=O)c1ccc(C(=O)O)cc1
mutagenic call (Species/Cell Type: Saccharomyces cerevisiae, Assay Type: Mitotic recombination or gene conversion, Assay Code: YEC-*, Activation: With metabolic activation, Evaluation Type: Evaluation A (Pre-1980)): inactive; negative

CC(C)NP(=O)(N1CC1)N1CC1
mutagenic call [1]: active; positive
mutagenic call (Species/Cell Type: Nonhuman, Assay Type: Chromosome aberrations in vitro, Assay Code: CY&+, Evaluation Type: Evaluation A (Pre-1980)): active; positive

COc1cccc2oc3c4c(cc(OC)c3c(=O)c12)O[C@H]1OC=C[C@@H]41
mutagenic call [6]: no conclusion

CC1CN1P(=O)(N(C)C)N(C)C (centres undefined)
mutagenic call [1]: active; positive

c1ccc2c(c1)[nH]c1cnccc12
mutagenic call (Species/Cell Type: Human lymphocytes, Assay Type: Sister-chromatid exchange (SCE) in vitro, Assay Code: SCL+D, Dose Response: With dose response, Evaluation Type: Evaluation B (Post-1980)): active; positive
mutagenic call [11]: no conclusion
mutagenic call (Species/Cell Type: Human, Assay Type: Sister-chromatid exchange (SCE) in vitro, Assay Code: SC1+D, Dose Response: With dose response, Evaluation Type: Evaluation B (Post-1980)): active; positive
mutagenic call [12]: no conclusion

OC1c2cccc3ccc4cc5ccccc5c(c4c23)C1O (centres undefined)
mutagenic call [4]: inactive; negative

Cc1ccc([N+](=O)[O-])o1
mutagenic call (Species/Cell Type: Bacillus subtilis (H17 vs M45T), Assay Type: Rec-assay, spot test, DNA effects (bacterial DNA repair), Assay Code: REX+, Evaluation Type: Evaluation A (Pre-1980)): active; positive
mutagenic call [5]: active; positive

Cc1cccc2cc3c(ccc4ccccc43)cc12
call [14]: active; positive
mutagenic call (Species/Cell Type: Nonhuman, Assay Type: Sister-chromatid exchange (SCE) in vitro, Assay Code: SC2+, Evaluation Type: Evaluation B (Post-1980)): active; positive
mutagenic call (Species/Cell Type: Salmonella typhimurium (one or more of the five standard strains: TA98, TA100, TA1535, TA1537, and TA1538), Assay Type: Histidine reverse gene mutation, Ames assay, Assay Code: SAL+*, Activation: With metabolic activation, Evaluation Type: Evaluation A (Pre-1980)): active; positive
mutagenic call [10]: inactive; negative
